Two compounds from patent US20040258733A1, “Breath Freshening and Oral Cleansing Product Using Salicylaldehyde” (priority 2002, published 2004) can be followed below.

Values after ≈ are worked out from the molar mass of the structure shown.

Common to all, as to type: cell-based
Test [1] deals with Fusobacterium nucleatum. Kind of test: MBC determination, plating on blood agar. The settings on record: F. nucleatum, lowest concentration that killed at least 99.9% of initial inoculum, plates 48 hours at 37° C., read-out: MBC (minimum bactericidal concentration). How it is done:
(§1) The MBC (Minimum bactericidal concentrations) were determined using the 96 well microtiter plate serial dilutions as described above for MIC studies. Serial dilution of cultures in wells showing no visible growth were performed and 10 microliters of culture were plated in triplicate on blood agar plates. Viable colonies were scored after incubation of the plates for 48 hours at 37° C. For each test bacterium, the number of CFU/ml were determined in the initial inoculum. The MBC was defined as the lowest concentration of a test compound that killed at least 99.9% of the cells present in the initial inoculum.

Test [2] relates to Porphyromonas gingivalis. Briefly: MBC determination, plating on blood agar. The settings on record: P. gingivalis, lowest concentration that killed at least 99.9% of initial inoculum, plates 48 hours at 37° C., read-out: MBC (minimum bactericidal concentration). On the procedure:
as §1

Test [3] concerns Fusobacterium nucleatum. Briefly: MIC study, 96 well microtiter plate serial dilution. The settings on record: F. nucleatum, 37° C., 48 hours, turbidity at 660 nm, read-out: MIC (minimum inhibitory concentration). On the procedure: (§2) In vitro tests were conducted with a gram positive supragingival plaque bacterium, Streptococcus mutans. In addition, two subgingival plaque bacteria associated with oral malodor were tested, Porphyromonas gingivalis and Fusobacterium nucleatum. The MIC (Minimum Inhibitory Concentrations) study protocol is as follows. Chlorhexidine was used as a positive control and sterile water was used as a negative control. Salicylaldehyde was suspended in 10% methanol with 3.8% Tween 80. […] 96 well microtiter plates were used for this study. Each well contained […] of bacteria, serially diluted agents and bacterial growth medium. All bacterial cultures were incubated at 37° C. and stationary. Bacterial growth was estimated spectrophotometrically at 660 nm, after 48 hours. The MIC for each test bacteria was defined as the minimum concentration of test compound limiting turbidity to […].

The test system of test [4] is Porphyromonas gingivalis. Described as above. To be noted: P. gingivalis, 37° C., 48 hours, turbidity at 660 nm, read-out: MIC (minimum inhibitory concentration). On the procedure: as §2
The next test concerns Streptococcus mutans. Described as above. How it is done:
as §2

Take `[H]/N=C(\N/C(=N/[H])NCCCCCCNC(=N)NC(=N)Nc1ccc(Cl)cc1)Nc1ccc(Cl)cc1` [Cholorhexidine, Chlorhexidine, reference compound]: the MBC with Fusobacterium nucleatum [1] and in the test on Porphyromonas gingivalis [2] was 1.25 µg/mL (≈ 2.47 µM) throughout. For the same compound, the MIC in the test with Fusobacterium nucleatum [3] and in the test with Porphyromonas gingivalis [4] was 1.25 µg/mL (≈ 2.47 µM) each time.

As to `O=Cc1ccccc1O` [salicylaldehyde], the MBC in the test on Fusobacterium nucleatum [1] was found to be 15.6 µg/mL (≈ 128 µM); in the test on Porphyromonas gingivalis [2], 250 µg/mL (≈ 2050 µM). Also, the “effectiveness against S. mutans (in words)” value with Streptococcus mutans is listed as “not exceptionally effective”. For the same compound, the MIC amounted to 1000 µg/mL (≈ 8190 µM) in the test with Streptococcus mutans (Streptococcus mutans, S. mutans, 37° C., 48 hours, turbidity at 660 nm, read-out: MIC (minimum inhibitory concentration)); 7.8 µg/mL (≈ 63.9 µM) in the test with Fusobacterium nucleatum [3]; 125 µg/mL (≈ 1020 µM) in the test with Porphyromonas gingivalis [4].
